Test results published in article PMC4666608, “Metabolic Profiling of Chicken Embryos Exposed to Perfluorooctanoic Acid (PFOA) and Agonists to Peroxisome Proliferator-Activated Receptors” (PLoS ONE, 2015).
Marks after values point to notes of the source that are not given here.

Test system: chicken embryos
Assay: Metabolic profiling of allantoic fluid (GC-MS, LC-MS, OPLS-DA)
Format: in vivo, Gallus gallus domesticus
Conditions: LC, PFOA 50 μg/egg
Method: Controls were injected with 20 μL vehicle only (DMSO).
Plasma was collected and stored at -70°C.
Metabolites in allantoic fluid and blood plasma were analyzed using gas chromatography-mass spectrometry (GC-MS) and liquid chromatography-mass spectrometry (LC-MS) as described in S1 Methods. Prior to GC-MS and LC-MS analysis, allantoic fluid (100 μL) and blood plasma (50 μL) were extracted. To each sample, 900 μL (allantoic fluid) or 450 μL (blood plasma) of extraction buffer (90/10 v/v methanol:water) including all internal standards were added. Standards for GC-MS were proline, succinic acid, glutamic acid, salicylic acid, alpha-ketoglutarate, putrescine, myristic acid, hexadecanoic acid, cholesterol, and sucrose. Standards for LC-MS were Val-Tyr-Val, Leu-enkephalin, sulfadimethoxine and reserpine. Samples were homogenized by shaking in a bead mill at a frequency of 30 Hz for 3 minutes and proteins were precipitated at +4°C on ice. The samples were centrifuged at +4°C, 14000 rpm, for 10 min. Then, 200 μL supernatant was transferred to a GC microvial and 200 μL was transferred to an LC microvial, and solvents were evaporated. Samples from the four replicate experiments were analyzed using in chronological order and within each replicate experiment the run order of the individual samples was randomized.
Multivariate statistical analyses of metabolite profiles were performed using the software package SIMCA-P version 13.0 (Umetrics, Umeå, Sweden). Data was centered and scaled to variance 1 (UV scaling) prior to modelling. To reduce unintended systematic variation caused by sample processing and instrument drift, GC-MS and LC-MS metabolite amounts (expressed as the area under the chromatographic peak) were normalized by Orthogonal Partial Least Squares analysis (O2PLS) prior to multivariate data analysis. O2PLS finds common (predictive) and unique (orthogonal) variation in two data matrices. If applied to find the common variation between the data matrix containing the measured metabolite concentrations and a matrix containing only the internal standards, the only common (predictive) variation expected is due to the unintended systematic variation. By deleting the contribution of the predictive latent variables, that variation can be removed from the data. Models obtained after this normalization contain in general less latent variables, and this simplification helps when deciding on the number of latent variables to be used. Following normalization, GC-MS and LC-MS data were analyzed together. Initially, a global Principal Component Analysis (PCA) was performed to get an overview of groups and trends and to identify outliers. Projections to latent structures by means of Orthogonal Partial Least Squares Discriminant Analysis (OPLS-DA) was used to model the relationship between the X-matrix (metabolite concentrations) and the Y matrix (class, i.e. exposure group or sex), and to find x-variables that were related to class belonging. OPLS-DA is a supervised prediction and regression method that rotates the projection plane to find the maximum covariance between the data and the class assignment. All groups were first analyzed together in a 5-class OPLS-DA and then each exposure group was analyzed against the control group in a 2-class OPLS-DA. Sex differences were analyzed both using the whole data set and in each group separately using 2-class OPLS-DA, with females and males as the two classes. Only variables with 80% or more nonzero values were included in the statistical models. […] The validity of each model was also checked using CV-ANOVA (ANOVA of the cross-validated residuals). A significance level of p < 0.05 was used. For each model, R ^2 X, R ^2 Y and Q ^2 values were calculated, where R ^2 X is a measure of the fraction of x variation modeled in the extracted latent variables, R ^2 Y is a measure of the fraction of y variation modeled and Q ^2 is an estimate of the predictive ability of the model and is calculated by cross-validation. […]

O=C(O)C(F)(F)C(F)(F)C(F)(F)C(F)(F)C(F)(F)C(F)(F)C(F)(F)F [PFOA, perfluorooctanoic acid] was tested, and the “Mean concentration relative to control, feature 197.0639@2.1181405” value was 1.0, the “Mean concentration relative to control, feature 201.012@3.046474” value was 1.0 and the “Mean concentration relative to control, feature 202.0429@2.9548414” value was 1.0. The “Mean concentration relative to control, feature 205.0533@4.421879” value was 1.0, the “Mean concentration relative to control, feature 214.016@2.1190732” value was 1.1 and the “Mean concentration relative to control, feature 226.0107@4.421457” value was 1.0. For the same molecule, the “Mean concentration relative to control, feature 236.0816@3.0720985” value was 1.0, the “Mean concentration relative to control, feature 241.0551@2.3510706” value was 0.9 and the “Mean concentration relative to control, feature 243.1118@2.1537287” value was 1.0. The “Mean concentration relative to control, feature 244.9972@4.421603” value was 1.0, the “Mean concentration relative to control, feature 245.1563@2.2907295” value was 0.8* and the “Mean concentration relative to control, feature 250.0981@3.072492” value was 1.0. The “Mean concentration relative to control, feature 262.0978@2.7961144” value was 1.0, the “Mean concentration relative to control, feature 263.0855@2.2847009” value was 1.0 and the “Mean concentration relative to control, feature 270.0441@1.1407775” value was 0.8. For the same molecule, the “Mean concentration relative to control, feature 278.0928@3.0723689” value was 1.0, the “Mean concentration relative to control, feature 279.1248@2.796395” value was 1.0 and the “Mean concentration relative to control, feature 280.1425@2.730277” value was 1.0. For the same molecule, the “Mean concentration relative to control, feature 288.1166@2.9551322” value was 1.1, the “Mean concentration relative to control, feature 289.1012@3.249983” value was 1.0 and the “Mean concentration relative to control, feature 289.173@7.5030584” value was 1.1. For the same molecule, the “Mean concentration relative to control, feature 294.1242@2.3692534” value was 1.0, the “Mean concentration relative to control, feature 302.0508@3.0722616” value was 1.0 and the “Mean concentration relative to control, feature 305.1682@5.353517” value was 0.8*. The “Mean concentration relative to control, feature 305.1684@5.2955093” value was 0.8, the “Mean concentration relative to control, feature 308.073@4.4211636” value was 1.0 and the “Mean concentration relative to control, feature 310.1181@1.5090439” value was 1.0. The “Mean concentration relative to control, feature 316.0389@3.0725708” value was 1.0, the “Mean concentration relative to control, feature 320.0626@3.0729218” value was 1.0 and the “Mean concentration relative to control, feature 325.1114@2.1190624” value was 0.9. The “Mean concentration relative to control, feature 325.1115@2.3554378” value was 0.9, the “Mean concentration relative to control, feature 333.1335@2.8639288” value was 0.9 and the “Mean concentration relative to control, feature 333.2005@6.5291867” value was 0.9. For the same molecule, the “Mean concentration relative to control, feature 335.1866@4.508565” value was 1.0, the “Mean concentration relative to control, feature 337.1651@1.8737898” value was 0.9 and the “Mean concentration relative to control, feature 344.1424@2.348947” value was 0.9. For the same molecule, the “Mean concentration relative to control, feature 348.0553@3.0730357” value was 1.0, the “Mean concentration relative to control, feature 349.1651@2.4087605” value was 0.9 and the “Mean concentration relative to control, feature 357.1997@6.9691257” value was 0.9. For the same molecule, the “Mean concentration relative to control, feature 371.1513@3.0009465” value was 1.0, the “Mean concentration relative to control, feature 375.1819@3.672254” value was 0.9 and the “Mean concentration relative to control, feature 394.167@3.9552917” value was 0.8. The “Mean concentration relative to control, feature 414.1482@2.118972” value was 1.0.
